Laboratory results: ChEMBL document CHEMBL1909046, “DrugMatrix in vitro pharmacology data”

What was measured:
[1] = biological target: T1, C-C chemokine receptor type 4 (Homo sapiens, UniProt P51679); type: cell membranes, Membrane; conditions: chem-1; also: in other assays of this panel Not Active means under 50% inhibition at 10 µM
T1 sequence (P51679 whole entry): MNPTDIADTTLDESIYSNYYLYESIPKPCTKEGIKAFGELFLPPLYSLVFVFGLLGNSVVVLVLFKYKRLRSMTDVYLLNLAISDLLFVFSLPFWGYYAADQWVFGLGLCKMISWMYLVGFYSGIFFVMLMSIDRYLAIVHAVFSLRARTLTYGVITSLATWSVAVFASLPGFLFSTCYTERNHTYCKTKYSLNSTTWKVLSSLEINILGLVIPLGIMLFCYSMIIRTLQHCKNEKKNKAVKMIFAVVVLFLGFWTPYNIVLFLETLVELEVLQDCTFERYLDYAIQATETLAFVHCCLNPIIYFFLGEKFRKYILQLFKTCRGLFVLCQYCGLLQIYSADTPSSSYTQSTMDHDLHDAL

[2] = biological target: T2, Alpha-2C adrenergic receptor (Homo sapiens, UniProt P18825); assay: DRUGMATRIX: Adrenergic Alpha-2C radioligand binding (ligand: [3H] MK-912); type: cell membranes, Sf9, Membrane; conditions: sf9
T2 sequence (P18825 whole entry): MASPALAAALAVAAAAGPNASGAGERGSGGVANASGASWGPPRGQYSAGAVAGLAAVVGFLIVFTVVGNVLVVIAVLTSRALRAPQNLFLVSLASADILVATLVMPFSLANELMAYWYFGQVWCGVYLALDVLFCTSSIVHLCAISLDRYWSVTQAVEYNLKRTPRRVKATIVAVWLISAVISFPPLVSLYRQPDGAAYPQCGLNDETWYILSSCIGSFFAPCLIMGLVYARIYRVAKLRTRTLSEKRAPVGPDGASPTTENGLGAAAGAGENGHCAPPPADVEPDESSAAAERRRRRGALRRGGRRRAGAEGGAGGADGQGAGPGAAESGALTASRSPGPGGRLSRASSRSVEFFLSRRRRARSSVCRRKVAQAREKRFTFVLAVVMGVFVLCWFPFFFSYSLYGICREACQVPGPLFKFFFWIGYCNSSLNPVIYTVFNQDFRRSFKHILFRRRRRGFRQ

[3] = DRUGMATRIX: Calcium Channel Type L, Benzothiazepine radioligand binding (ligand: [3H] Diltiazem); type: cell membranes, Rattus norvegicus, Wistar, Brain, Membrane; conditions: Not Active = under 50% inhibition at 10 µM
Glucocorticoid receptor = biological target: T3, Glucocorticoid receptor (Homo sapiens, UniProt P04150); assay: biochemical; also: in other assays of this panel Not Active means under 50% inhibition at 10 µM
T3 sequence (P04150 whole entry): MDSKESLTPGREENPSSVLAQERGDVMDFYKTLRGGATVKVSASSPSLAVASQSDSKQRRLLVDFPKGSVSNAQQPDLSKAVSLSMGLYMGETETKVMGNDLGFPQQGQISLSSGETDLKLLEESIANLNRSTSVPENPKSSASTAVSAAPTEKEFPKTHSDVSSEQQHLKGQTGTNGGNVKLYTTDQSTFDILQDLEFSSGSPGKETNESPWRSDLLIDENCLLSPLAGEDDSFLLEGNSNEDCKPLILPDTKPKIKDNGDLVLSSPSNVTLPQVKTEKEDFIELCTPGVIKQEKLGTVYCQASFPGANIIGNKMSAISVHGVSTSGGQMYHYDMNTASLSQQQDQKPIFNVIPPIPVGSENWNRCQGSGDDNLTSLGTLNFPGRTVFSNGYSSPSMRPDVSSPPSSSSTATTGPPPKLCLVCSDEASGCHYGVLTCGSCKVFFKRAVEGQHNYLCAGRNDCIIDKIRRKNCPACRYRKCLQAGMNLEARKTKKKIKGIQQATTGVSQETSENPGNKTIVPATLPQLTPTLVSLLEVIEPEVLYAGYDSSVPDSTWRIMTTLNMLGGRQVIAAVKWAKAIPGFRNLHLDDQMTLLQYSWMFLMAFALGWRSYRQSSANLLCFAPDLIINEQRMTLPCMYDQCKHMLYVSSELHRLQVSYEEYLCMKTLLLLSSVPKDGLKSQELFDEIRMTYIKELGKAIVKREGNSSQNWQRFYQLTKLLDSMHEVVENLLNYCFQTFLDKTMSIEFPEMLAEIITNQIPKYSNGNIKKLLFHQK

Cytochrome P450 2D6 = Cytochrome P450 2D6 (Homo sapiens, UniProt P10635); also: in other assays of this panel Not Active means under 50% inhibition at 10 µM
Sequence of Cytochrome P450 2D6 (P10635 whole entry): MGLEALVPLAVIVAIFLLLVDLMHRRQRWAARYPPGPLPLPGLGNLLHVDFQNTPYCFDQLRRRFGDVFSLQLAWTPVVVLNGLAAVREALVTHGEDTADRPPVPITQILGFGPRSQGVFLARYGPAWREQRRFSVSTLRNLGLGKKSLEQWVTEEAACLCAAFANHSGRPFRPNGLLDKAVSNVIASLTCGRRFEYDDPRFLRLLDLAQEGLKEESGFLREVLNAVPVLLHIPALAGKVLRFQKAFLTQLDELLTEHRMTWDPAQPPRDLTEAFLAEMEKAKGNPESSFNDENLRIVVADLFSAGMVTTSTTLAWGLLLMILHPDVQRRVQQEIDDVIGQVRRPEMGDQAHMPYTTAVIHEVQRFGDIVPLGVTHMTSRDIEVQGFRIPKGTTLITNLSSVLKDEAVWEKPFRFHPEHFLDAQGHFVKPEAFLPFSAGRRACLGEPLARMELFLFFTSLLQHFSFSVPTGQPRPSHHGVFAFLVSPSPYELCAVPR

Cytochrome P450 2C19 = Cytochrome P450 2C19 (Homo sapiens, UniProt P33261); also: in other assays of this panel Not Active means under 50% inhibition at 10 µM
Sequence of Cytochrome P450 2C19 (P33261 whole entry): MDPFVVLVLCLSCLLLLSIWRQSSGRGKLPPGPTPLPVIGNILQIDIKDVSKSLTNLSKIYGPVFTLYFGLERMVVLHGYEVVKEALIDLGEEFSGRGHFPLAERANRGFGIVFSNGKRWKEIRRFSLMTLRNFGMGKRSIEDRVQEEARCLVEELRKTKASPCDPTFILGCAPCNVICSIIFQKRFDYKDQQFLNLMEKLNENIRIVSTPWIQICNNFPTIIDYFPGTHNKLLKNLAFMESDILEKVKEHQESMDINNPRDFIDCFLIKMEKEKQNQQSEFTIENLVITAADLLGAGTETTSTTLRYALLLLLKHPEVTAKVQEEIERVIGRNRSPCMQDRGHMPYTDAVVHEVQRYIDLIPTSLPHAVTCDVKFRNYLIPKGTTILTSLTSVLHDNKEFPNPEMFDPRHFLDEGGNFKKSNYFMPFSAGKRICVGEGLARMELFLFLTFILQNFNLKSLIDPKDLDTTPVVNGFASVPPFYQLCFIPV

[4] = biological target: Voltage-gated inwardly rectifying potassium channel KCNH2 (Homo sapiens, UniProt Q12809); also: in other assays of this panel Not Active means under 50% inhibition at 10 µM
Sequence of Voltage-gated inwardly rectifying potassium channel KCNH2 (Q12809 whole entry): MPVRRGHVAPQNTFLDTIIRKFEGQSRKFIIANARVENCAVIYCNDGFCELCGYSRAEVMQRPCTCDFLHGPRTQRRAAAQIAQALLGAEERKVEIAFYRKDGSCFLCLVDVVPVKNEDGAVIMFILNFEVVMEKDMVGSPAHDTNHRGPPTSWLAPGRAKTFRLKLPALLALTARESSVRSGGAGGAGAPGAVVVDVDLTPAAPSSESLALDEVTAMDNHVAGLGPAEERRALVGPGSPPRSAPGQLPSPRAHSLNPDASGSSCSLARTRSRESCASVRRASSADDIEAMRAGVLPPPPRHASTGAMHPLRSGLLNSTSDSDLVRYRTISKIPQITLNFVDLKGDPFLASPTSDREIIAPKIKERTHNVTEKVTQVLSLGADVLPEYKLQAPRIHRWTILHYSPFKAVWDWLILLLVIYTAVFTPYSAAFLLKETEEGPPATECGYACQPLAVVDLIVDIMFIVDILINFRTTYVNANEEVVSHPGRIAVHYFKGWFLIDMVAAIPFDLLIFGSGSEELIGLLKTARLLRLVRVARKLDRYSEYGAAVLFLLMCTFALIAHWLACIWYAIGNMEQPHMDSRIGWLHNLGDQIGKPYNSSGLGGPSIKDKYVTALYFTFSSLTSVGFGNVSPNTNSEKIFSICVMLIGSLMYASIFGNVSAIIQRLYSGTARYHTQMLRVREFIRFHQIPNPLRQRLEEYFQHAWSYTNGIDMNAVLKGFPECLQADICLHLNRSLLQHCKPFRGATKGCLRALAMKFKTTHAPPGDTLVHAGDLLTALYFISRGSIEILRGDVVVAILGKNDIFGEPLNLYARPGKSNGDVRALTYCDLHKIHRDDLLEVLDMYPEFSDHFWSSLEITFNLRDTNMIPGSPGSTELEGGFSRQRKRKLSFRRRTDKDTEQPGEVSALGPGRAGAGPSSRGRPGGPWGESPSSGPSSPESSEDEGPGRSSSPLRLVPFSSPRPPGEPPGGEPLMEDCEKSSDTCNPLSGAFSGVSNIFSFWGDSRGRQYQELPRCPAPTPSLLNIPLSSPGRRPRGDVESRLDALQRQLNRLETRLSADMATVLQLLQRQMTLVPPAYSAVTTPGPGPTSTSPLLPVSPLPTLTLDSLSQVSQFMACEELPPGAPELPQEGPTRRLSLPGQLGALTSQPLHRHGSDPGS

Androgen receptor = biological target: T4, Androgen receptor (Rattus norvegicus, UniProt P15207); also: in other assays of this panel Not Active means under 50% inhibition at 10 µM
T4 sequence (P15207 whole entry): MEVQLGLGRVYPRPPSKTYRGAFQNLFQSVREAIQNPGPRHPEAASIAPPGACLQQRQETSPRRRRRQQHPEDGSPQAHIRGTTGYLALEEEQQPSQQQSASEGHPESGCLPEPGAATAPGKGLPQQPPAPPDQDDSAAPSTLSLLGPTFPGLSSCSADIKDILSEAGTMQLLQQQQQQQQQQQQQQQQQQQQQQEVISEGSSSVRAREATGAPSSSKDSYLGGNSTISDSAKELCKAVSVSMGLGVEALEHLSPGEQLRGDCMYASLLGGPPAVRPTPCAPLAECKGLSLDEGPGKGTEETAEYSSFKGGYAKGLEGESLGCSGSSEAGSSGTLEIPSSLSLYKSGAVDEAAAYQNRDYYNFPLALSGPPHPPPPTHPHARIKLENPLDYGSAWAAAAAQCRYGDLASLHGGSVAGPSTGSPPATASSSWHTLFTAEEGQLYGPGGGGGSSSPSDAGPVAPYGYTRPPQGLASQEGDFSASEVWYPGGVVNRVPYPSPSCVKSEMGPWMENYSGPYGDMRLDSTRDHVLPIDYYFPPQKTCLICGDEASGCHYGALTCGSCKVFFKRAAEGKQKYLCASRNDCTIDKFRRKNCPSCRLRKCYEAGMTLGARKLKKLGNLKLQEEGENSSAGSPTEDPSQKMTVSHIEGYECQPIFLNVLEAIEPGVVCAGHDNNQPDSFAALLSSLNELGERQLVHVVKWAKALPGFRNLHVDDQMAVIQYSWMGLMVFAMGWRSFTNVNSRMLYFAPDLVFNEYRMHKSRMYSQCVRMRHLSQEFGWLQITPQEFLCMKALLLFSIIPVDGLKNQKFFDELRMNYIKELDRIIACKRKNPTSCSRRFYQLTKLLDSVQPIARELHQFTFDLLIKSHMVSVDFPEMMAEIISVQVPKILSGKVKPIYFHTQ

Compound	IC50 [1]	IC50 [2]	IC50 [3]	Ki [3]	IC50 (Glucocorticoid receptor)	Ki (Glucocorticoid receptor)	IC50 (Cytochrome P450 2D6)	IC50 (Cytochrome P450 2C19)	IC50 ([3]; read-out: IC50)	Ki ([3]; read-out: Ki)	IC50 [4]	Ki [4]	IC50 (Androgen receptor)	Ki [1]	Ki [2]	Ki (Androgen receptor)
CC(=O)[C@@]1(O)CC[C@H]2[C@@H]3C[C@H](C)C4=CC(=O)C=C[C@]4(C)[C@@]3(F)[C@@H](O)C[C@@]21C [FLUOROMETHOLONE]	Not Active	Not Active	Not Active	Not Active	3.47 nM	1.58 nM										
CNCCC=C1c2ccccc2CCc2ccccc21 [NORTRIPTYLINE]	Not Active						1000 nM	3000 nM	2800 nM	2490 nM						
CC(=O)O[C@]1(C(C)=O)CC[C@H]2[C@@H]3C=C(Cl)C4=CC(=O)CC[C@]4(C)[C@H]3CC[C@@]21C [CHLORMADINONE ACETATE]	Not Active	Not Active	Not Active	Not Active				3000 nM								
CC(=O)OCC(=O)[C@@]1(OC(C)=O)[C@@H](C)C[C@H]2[C@@H]3C[C@H](F)C4=CC(=O)C=C[C@]4(C)[C@@]3(F)[C@@H](O)C[C@@]21C [DIFLORASONE DIACETATE]	Not Active	Not Active	Not Active	Not Active	6.4 nM	2.91 nM										
CNC(=O)Oc1ccc2c(c1)[C@]1(C)CCN(C)[C@@H]1N2C [PHYSOSTIGMINE]	Not Active	Not Active	Not Active	Not Active			200 nM									
O=C1OC2(c3ccc(O)cc3Oc3cc(O)ccc32)c2ccccc21 [FLUORESCEIN]	Not Active	Not Active	Not Active	Not Active				907 nM								
Cc1c(-c2ccccc2)oc2c(C(=O)OCCN3CCCCC3)cccc2c1=O [FLAVOXATE]	Not Active	Not Active	Not Active	Not Active							24100 nM	19800 nM				
COc1ccc(CN(CCN(C)C)c2ccccn2)cc1 [PYRILAMINE]	Not Active	Not Active	Not Active	Not Active			300 nM				12600 nM	10300 nM				
CCc1ccc(C(=O)C(C)CN2CCCCC2)cc1 (centres undefined) [EPERISONE]	Not Active	Not Active	Not Active	Not Active			4900 nM									
C=C(C)[C@@H]1[C@H]2OC(=O)[C@@H]1[C@]1(O)C[C@H]3O[C@]34C(=O)O[C@H]2[C@]14C [PICROTOXININ]	Not Active	Not Active	Not Active	Not Active									Not Active			
CARBOPLATIN	Not Active	Not Active	Not Active	Not Active									Not Active	Not Active	Not Active	Not Active
CC[C@@]1(O)C(=O)OCc2c1cc1n(c2=O)Cc2cc3ccccc3nc2-1 [CAMPTOTHECIN]	Not Active	Not Active	Not Active	Not Active									Not Active			
CISPLATIN	Not Active	Not Active	Not Active	Not Active									Not Active	Not Active	Not Active	Not Active
OXALIPLATIN	Not Active	Not Active	Not Active	Not Active									Not Active	Not Active	Not Active	Not Active
